Structures can show the parent of a compound that is named as a salt.
Tested on: small intestine lamina propria lymphocytes
Assay: EL-PAT: flow cytometry of small intestine lamina propria lymphocytes
Assay type: in vivo, C57BL/6 mice
Details: 7-week old; for small intestine CD4+ IL-17A+ (IL-17A expression): males, vs control
Protocol: For the experiments, dams and their litters were divided into control and antibiotic groups. In the EL-PAT study dams in the antibiotic groups received Tylosin tartrate (Sigma Aldrich, St. Louis Mo.) dissolved in distilled deionized water (neutral pH) at a concentration of 0.33 mg/ml, and dams in the control group received non-acidified water. Mice in the PAT3 group received two additional doses of antibiotics at day 27 and 36 of life for 3 days. In some experiments, C57BL/6 mice were exposed to one, PAT1, (n=17, M=9, F=8) or three, PAT3, (n=19, M=10, F=9) doses of the macrolide Tylosin in non-acidified water or non-acidified water alone (control, n=12, M=9, F=3), early-in-life, to mirror pediatric antibiotic exposures. For the first antibiotic pulse […] of Tylosin tartrate (Sigma) was dissolved in 250 ml of non-acidified water and given to PAT1 and PAT3 lactating dams at pup day 5 of life for 5 days. For the second and third pulse, pups received the antibiotic directly at day 27 and day 36 of life respectively, for three days. Mice were sacrificed at 7 weeks of age and fecal, ileal and cecal contents were collected. Throughout the experiment mouse weight and fecal contents were collected. After euthanasia of the mice by CO2 asphyxiation, small intestines were excised and placed in cold calcium and magnesium-free HBSS supplemented with HEPES-Bicarbonate and 5% FBS (CMF). Peyer's patches were removed and the intestine was opened longitudinally along its entire length. Intestinal contents were removed by washing thoroughly with cold CMF and treated with 1 mM DTT to remove contaminating intra-epithelial lymphocytes. Subsequently, the intestinal tissue was treated twice with 1.3 mM EDTA to remove epithelial cells. To isolate lamina propria lymphocytes, intestinal tissue was cut laterally into ˜0.5 cm pieces and digested in collagenase IV digestion mix (0.5 mg/ml of collagenase IV, 200 ug/ml of DNase 1 suspended in RPMI supplemented with 10% FBS and HEPES for 1 hour. For each digestion procedure, samples were incubated at 37° C. with vigorous shaking After each treatment, cell isolates were filtered through 100 μm diameter nylon mesh (BD Bioscience). For further purification of leukocytes, intestinal cell suspensions were subjected to a 44% /67% discontinuous Percoll (GE Healthcare Life Sciences) gradient. Cells were spun at 2,200 rpm for 20 minutes and collected at the 44% /67% Percoll interface. Viable cells were carefully removed from the interface, washed, and suspended in RPMI complete media. […] All cells were acquired on a LSRII (BD Bioscience) and analyzed using FlowJo software (version 9.3.2; Tree Star Inc.). […]

SMILES: CC[C@H]1OC(=O)C[C@@H](O)[C@H](C)[C@@H](O[C@@H]2O[C@H](C)[C@@H](O[C@H]3C[C@@](C)(O)[C@@H](O)[C@H](C)O3)[C@H](N(C)C)[C@H]2O)[C@@H](CC=O)C[C@@H](C)C(=O)/C=C/C(C)=C/[C@@H]1CO[C@@H]1O[C@H](C)[C@@H](O)[C@@H](OC)[C@H]1OC [Tylosin, Tylosin tartrate]
- intestinal CD4+ IL-17A+ populations (females, three antibiotic doses, p<0.01): significantly decreased
- CD4− IL-17A+ populations (females, three therapeutic doses, p<0.05): decreased
- small intestine CD4+ IL-17A+ (IL-17A expression) (one therapeutic dose): significantly decreased
- small intestine CD4+ IL-17A+ (IL-17A expression) (three therapeutic doses): significantly decreased

— patent US20160120915A1, “METHODS FOR MANIPULATING IMMUNE RESPONSES BY ALTERING MICROBIOTA” (NEW YORK UNIVERSITY, priority 2013, published 2016)
